Assay results as given in ChEMBL document CHEMBL1743201, “Casarett and Doull's Toxicology The Basic Science of Poisons, 7th edition” (2008).

Key:
Type in all cases: ADME
[1] = target: Sulfotransferase 1C4 (Homo sapiens, UniProt O75897); assay: Major substrate of human cytosolic sulfotransferase SULT1C4
[2] = target: T1, Glutathione S-transferase A1 (Homo sapiens, UniProt P08263); assay: Substrates for human cytosolic glutathione transferase GSTA1
T1 sequence (P08263 whole entry): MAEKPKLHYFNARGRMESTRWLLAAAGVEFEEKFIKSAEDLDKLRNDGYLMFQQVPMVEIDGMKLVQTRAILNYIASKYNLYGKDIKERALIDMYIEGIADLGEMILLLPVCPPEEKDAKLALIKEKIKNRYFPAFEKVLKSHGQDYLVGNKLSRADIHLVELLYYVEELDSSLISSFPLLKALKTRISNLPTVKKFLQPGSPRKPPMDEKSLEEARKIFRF

[3] = target: Glutathione S-transferase P (Homo sapiens, UniProt P09211); assay: Substrates for human cytosolic glutathione transferase GSTP1
Sequence of Glutathione S-transferase P (P09211 whole entry, canonical isoform): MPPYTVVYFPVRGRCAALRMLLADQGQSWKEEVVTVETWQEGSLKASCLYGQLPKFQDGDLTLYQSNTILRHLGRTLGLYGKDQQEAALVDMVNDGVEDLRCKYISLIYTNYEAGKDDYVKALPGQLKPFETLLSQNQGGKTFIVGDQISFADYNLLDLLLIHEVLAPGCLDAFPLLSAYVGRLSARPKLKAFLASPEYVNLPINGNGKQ

[4] = target: Cytochrome P450 2C9 (Homo sapiens, UniProt P11712); assay: Clinically relevant inhibitors of human liver microsomal P450 enzymes, isoform CYP2C9; conditions: microsomes
Sequence of Cytochrome P450 2C9 (P11712 whole entry, canonical isoform): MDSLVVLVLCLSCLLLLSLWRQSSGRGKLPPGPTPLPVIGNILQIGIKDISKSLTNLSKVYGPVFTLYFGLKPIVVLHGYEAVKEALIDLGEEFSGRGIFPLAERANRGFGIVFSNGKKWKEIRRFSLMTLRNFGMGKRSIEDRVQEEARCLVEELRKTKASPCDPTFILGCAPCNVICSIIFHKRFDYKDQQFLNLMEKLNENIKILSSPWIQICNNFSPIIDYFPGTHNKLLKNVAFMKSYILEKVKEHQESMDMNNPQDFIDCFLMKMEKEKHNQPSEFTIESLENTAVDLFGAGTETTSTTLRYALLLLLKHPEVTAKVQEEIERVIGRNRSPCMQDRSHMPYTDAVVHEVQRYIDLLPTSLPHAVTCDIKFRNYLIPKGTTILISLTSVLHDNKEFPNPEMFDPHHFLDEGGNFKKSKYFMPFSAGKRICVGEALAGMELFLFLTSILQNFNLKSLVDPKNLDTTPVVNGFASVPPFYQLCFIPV

[5] = target: T2, Cytochrome P450 2B6 (Homo sapiens, UniProt P20813); assay: Clinically relevant substrates of human liver microsomal P450 enzymes, isoform CYP2B6; conditions: microsomes
T2 sequence (P20813 whole entry): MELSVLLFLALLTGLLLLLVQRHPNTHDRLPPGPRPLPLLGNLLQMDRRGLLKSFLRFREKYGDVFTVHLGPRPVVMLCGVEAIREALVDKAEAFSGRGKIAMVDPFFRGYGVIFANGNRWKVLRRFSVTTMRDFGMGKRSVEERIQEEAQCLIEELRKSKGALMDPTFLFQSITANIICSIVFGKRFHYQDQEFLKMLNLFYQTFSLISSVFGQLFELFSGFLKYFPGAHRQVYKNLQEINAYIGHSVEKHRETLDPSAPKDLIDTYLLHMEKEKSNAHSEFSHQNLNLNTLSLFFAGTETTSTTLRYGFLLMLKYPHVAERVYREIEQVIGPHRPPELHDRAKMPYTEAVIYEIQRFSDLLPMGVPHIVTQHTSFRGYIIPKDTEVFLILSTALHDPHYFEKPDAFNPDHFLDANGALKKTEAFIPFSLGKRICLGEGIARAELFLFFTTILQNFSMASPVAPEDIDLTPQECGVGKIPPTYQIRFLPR

[6] = target: T3, UDP-glucuronosyltransferase 1A6 (Homo sapiens, UniProt P19224); assay: Substrate of human UDP-glucuronosyltransferase UGT1A6
T3 sequence (P19224 whole entry): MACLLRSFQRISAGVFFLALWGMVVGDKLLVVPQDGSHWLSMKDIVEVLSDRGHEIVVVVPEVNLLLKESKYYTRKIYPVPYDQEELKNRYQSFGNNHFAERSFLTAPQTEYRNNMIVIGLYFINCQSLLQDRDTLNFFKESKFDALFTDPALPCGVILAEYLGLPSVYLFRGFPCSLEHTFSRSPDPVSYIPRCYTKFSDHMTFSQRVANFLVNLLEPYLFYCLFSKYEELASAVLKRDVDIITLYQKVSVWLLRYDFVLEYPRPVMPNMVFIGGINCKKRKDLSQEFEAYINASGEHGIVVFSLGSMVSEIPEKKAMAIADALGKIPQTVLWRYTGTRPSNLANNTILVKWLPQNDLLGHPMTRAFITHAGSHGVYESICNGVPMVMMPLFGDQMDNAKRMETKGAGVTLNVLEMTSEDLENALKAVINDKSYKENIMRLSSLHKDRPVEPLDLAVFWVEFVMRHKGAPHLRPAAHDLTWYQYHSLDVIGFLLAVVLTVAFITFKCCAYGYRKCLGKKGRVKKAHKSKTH

[7] = target: T4, UDP-glucuronosyltransferase 1A3 (Homo sapiens, UniProt P35503); assay: Substrate of human UDP-glucuronosyltransferase UGT1A3
T4 sequence (P35503 whole entry): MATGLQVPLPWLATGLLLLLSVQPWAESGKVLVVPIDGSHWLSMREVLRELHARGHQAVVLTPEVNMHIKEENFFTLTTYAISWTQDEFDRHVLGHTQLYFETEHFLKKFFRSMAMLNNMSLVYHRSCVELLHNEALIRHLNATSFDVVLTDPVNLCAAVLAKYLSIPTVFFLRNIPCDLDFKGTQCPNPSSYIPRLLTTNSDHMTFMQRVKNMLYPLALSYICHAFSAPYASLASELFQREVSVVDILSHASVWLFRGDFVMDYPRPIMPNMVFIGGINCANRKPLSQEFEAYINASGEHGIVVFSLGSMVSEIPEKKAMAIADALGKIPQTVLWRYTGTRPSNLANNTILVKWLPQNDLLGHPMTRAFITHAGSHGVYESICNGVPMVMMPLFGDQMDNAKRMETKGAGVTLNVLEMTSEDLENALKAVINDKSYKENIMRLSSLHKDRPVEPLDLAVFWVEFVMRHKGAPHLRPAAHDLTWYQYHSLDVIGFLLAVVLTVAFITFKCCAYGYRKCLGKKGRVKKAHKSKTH

[8] = target: T5, UDP-glucuronosyltransferase 1A9 (Homo sapiens, UniProt O60656); assay: Substrate of human UDP-glucuronosyltransferase UGT1A9
T5 sequence (O60656 whole entry): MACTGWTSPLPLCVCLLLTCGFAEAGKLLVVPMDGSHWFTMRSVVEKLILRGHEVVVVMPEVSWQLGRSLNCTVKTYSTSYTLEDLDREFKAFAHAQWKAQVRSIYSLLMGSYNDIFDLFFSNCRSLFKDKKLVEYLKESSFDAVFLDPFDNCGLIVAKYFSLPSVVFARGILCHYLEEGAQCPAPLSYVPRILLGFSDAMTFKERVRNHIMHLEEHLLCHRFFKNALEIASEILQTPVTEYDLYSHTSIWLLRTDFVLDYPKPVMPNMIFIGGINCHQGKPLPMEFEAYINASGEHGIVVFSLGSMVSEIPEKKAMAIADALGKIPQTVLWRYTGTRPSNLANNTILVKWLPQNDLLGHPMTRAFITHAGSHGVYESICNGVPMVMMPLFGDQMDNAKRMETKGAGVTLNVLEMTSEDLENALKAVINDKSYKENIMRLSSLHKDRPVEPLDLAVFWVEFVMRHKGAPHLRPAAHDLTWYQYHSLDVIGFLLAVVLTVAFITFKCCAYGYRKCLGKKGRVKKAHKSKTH

[9] = target: T6, UDP-glucuronosyltransferase 1A1 (Homo sapiens, UniProt P22309); assay: Substrate of human UDP-glucuronosyltransferase UGT1A1
T6 sequence (P22309 whole entry): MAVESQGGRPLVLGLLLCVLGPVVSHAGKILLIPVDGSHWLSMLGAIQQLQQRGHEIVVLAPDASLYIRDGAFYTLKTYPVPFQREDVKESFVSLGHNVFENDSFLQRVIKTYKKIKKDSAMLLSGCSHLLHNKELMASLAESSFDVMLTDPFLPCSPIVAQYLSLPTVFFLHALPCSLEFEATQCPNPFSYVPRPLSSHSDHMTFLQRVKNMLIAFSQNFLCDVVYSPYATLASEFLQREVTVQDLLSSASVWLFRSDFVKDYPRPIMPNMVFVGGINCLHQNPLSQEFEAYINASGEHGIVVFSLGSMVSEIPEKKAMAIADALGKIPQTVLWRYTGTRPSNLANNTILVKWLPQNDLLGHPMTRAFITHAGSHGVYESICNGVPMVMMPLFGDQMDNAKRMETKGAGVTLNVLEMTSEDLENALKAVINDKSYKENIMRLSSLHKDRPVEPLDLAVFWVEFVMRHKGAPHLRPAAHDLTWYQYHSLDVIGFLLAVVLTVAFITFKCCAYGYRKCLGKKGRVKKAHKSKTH

[10] = target: Sulfotransferase 1A1 (Homo sapiens, UniProt P50225); assay: Major substrate of human cytosolic sulfotransferase SULT1A1
Sequence of Sulfotransferase 1A1 (P50225 whole entry): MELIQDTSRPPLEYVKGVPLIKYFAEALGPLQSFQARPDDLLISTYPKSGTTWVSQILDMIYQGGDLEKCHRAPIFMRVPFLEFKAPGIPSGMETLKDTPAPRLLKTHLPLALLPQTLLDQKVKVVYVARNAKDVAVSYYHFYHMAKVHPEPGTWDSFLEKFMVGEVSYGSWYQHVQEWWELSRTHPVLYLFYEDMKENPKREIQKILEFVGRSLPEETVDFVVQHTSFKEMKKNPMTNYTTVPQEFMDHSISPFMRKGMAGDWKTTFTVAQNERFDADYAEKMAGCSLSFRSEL

[11] = target: T7, Sulfotransferase 1E1 (Homo sapiens, UniProt P49888); assay: Major substrate of human cytosolic sulfotransferase SULT1E1
T7 sequence (P49888 whole entry): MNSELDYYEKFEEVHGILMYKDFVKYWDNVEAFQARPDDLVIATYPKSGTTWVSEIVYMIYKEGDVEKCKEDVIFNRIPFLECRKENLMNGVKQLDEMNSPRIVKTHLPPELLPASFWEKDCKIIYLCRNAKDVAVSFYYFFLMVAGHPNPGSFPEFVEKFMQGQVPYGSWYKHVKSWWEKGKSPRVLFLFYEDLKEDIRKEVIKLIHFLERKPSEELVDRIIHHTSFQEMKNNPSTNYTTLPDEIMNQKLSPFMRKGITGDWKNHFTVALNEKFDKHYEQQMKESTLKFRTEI

[12] = target: T8, UDP-glucuronosyltransferase 2B7 (Homo sapiens, UniProt P16662); assay: Substrate of human UDP-glucuronosyltransferase UGT2B7
T8 sequence (P16662 whole entry): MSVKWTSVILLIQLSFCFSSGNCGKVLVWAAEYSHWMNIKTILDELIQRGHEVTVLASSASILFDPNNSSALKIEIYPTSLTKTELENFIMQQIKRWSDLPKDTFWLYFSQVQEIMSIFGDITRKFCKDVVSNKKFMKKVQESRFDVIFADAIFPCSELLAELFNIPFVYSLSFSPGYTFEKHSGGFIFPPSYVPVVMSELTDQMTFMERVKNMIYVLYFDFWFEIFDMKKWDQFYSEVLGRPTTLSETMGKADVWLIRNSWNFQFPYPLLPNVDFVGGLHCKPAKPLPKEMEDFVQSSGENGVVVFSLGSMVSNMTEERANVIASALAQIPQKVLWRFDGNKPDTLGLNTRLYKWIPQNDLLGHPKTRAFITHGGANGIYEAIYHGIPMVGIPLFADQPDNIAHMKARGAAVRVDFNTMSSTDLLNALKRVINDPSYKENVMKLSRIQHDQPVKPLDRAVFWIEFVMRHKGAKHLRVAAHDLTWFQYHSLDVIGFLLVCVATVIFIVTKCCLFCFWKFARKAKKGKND

Sequence of Sulfotransferase 1C4 (O75897 whole entry): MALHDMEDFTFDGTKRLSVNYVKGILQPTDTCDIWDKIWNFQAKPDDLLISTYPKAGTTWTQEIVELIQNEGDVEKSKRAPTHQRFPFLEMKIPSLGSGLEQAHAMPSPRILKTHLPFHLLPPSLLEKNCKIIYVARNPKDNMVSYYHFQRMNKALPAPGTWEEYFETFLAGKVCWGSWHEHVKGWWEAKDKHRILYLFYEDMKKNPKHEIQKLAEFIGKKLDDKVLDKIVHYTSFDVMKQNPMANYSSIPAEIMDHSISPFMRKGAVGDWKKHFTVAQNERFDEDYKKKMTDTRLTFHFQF

CCCCCCCCCc1ccc(O)cc1 [4-NONYLPHENOL]
Activity [1]: Substrate

O=C(O)CCCc1ccc(N(CCCl)CCCl)cc1 [CHLORAMBUCIL]
Activity [2]: Substrate | Activity [3]: Substrate

OC(Cn1cncn1)(Cn1cncn1)c1ccc(F)cc1F [FLUCONAZOLE]
Activity [4]: Inhibitor

Cc1ccnc2c1NC(=O)c1cccnc1N2C1CC1 [NEVIRAPINE]
Activity [5]: Substrate

CC(C)(c1ccc(O)cc1)c1ccc(O)cc1 [BISPHENOL A]
Activity [1]: Substrate

S=P(N1CC1)(N1CC1)N1CC1 [THIOTEPA]
Activity [3]: Substrate

Cc1cc(=O)oc2cc(O)ccc12 [HYMECROMONE]
Activity [6]: Substrate

COc1ccc2cc([C@H](C)C(=O)O)ccc2c1 [NAPROXEN]
Activity [7]: Substrate | Activity [8]: Substrate

Nc1ccc(S(=O)(=O)Nc2ccnn2-c2ccccc2)cc1 [SULFAPHENAZOLE]
Activity [4]: Inhibitor

C[C@]12CC[C@@H]3c4ccc(O)cc4CC[C@H]3[C@@H]1CC[C@@H]2O[C@@H]1O[C@H](C(=O)O)[C@@H](O)[C@H](O)[C@H]1O [ESTRADIOL 17B GLUCURONIDE]
Activity [9]: Substrate

NCCc1c[nH]c2ccc(O)cc12 [SEROTONIN]
Activity [6]: Substrate

CC(=O)Nc1ccc(O)cc1 [ACETAMINOPHEN]
Activity [10]: Substrate | Activity [9]: Substrate | Activity [6]: Substrate | Activity [8]: Substrate

CCOC(=O)C1(c2ccccc2)CCN(C)CC1 [MEPERIDINE]
Activity [5]: Substrate

O=C1[C@H](CC[C@H](O)c2ccc(F)cc2)[C@@H](c2ccc(O)cc2)N1c1ccc(F)cc1 [EZETIMIBE]
Activity [7]: Substrate

O=P1(N(CCCl)CCCl)NCCCO1 (stereo not drawn) [CYCLOPHOSPHAMIDE ANHYDROUS]
Activity [5]: Substrate

CNC1(c2ccccc2Cl)CCCCC1=O (stereo not drawn) [KETAMINE]
Activity [5]: Substrate

O=C1Nc2ccc(Cl)cc2[C@@](C#CC2CC2)(C(F)(F)F)O1 [EFAVIRENZ]
Activity [5]: Substrate

C[C@]12COC(=O)C[C@@H]1CC[C@@H]1[C@@H]2CC[C@@]2(C)[C@H]1CC[C@]2(C)O [OXANDROLONE]
Activity [4]: Inhibitor

O=C(O)COc1ccc(C(=O)c2cccs2)c(Cl)c1Cl
Activity [4]: Inhibitor

C=CC1=C(C)/C(=C/c2[nH]c(Cc3[nH]c(/C=C4\NC(=O)C(C)=C4C=C)c(C)c3CCC(=O)O)c(CCC(=O)O)c2C)NC1=O [BILIRUBIN]
Activity [9]: Substrate

CN1CCC(=C2c3ccccc3CC(=O)c3sccc32)CC1 [KETOTIFEN]
Activity [7]: Substrate

C#C[C@]1(O)CC[C@H]2[C@@H]3CCc4cc(O)ccc4[C@H]3CC[C@@]21C [ETHINYL ESTRADIOL]
Activity [11]: Substrate | Activity [9]: Substrate

C=CC=O [ACROLEIN]
Activity [3]: Substrate

CC(C(=O)O)c1cccc(C(=O)c2ccccc2)c1 (stereo not drawn) [KETOPROFEN]
Activity [7]: Substrate | Activity [8]: Substrate | Activity [12]: Substrate

CCCCCOC(=O)Nc1nc(=O)n([C@@H]2O[C@H](C)[C@@H](O)[C@H]2O)cc1F [CAPECITABINE]
Activity [4]: Inhibitor

CC/C(=C(/CC)c1ccc(O)cc1)c1ccc(O)cc1 [DIETHYLSTILBESTROL]
Activity [1]: Substrate | Activity [11]: Substrate

CC[C@@]1(c2ccccc2)NC(=O)N(C)C1=O
Activity [5]: Substrate

CC(C(=O)O)c1cccc(Oc2ccccc2)c1 (stereo not drawn) [FENOPROFEN]
Activity [7]: Substrate | Activity [8]: Substrate
